Reference: article PMC3059997, “Exploring Indirect Sources of Human Exposure to Perfluoroalkyl Carboxylates (PFCAs): Evaluating Uptake, Elimination, and Biotransformation of Polyfluoroalkyl Phosphate Esters (PAPs) in the Rat” (Environmental Health Perspectives, 2010)

How the values were obtained:
[1] = Uptake experiment: diPAP mixture by oral gavage, analytes in whole blood; assay type: in vivo, Sprague-Dawley rats; details: male, Sprague-Dawley, rat, in vivo, po, diPAP gavage dose, whole blood
Protocol: (§1) This research was conducted under an animal use protocol approved by the University of Toronto Animal Care Committee. All animals were treated humanely and with regard for alleviation of suffering. Sprague-Dawley rats were obtained from Charles River Laboratories Inc. (Sherbrooke, QC, Canada) The animals were singly housed and exposed to a 12/12 hr light/dark cycle with food and water available ad libitum. Blood samples were collected from the saphenous vein using Microvette CB 300 vials (Sarstedt AG & Co., Montreal, QC, Canada) embedded with lithium-heparin as an anticoagulant. Whole-blood samples were stored at −20°C, and urine and feces samples were stored at 4°C.
(§2) Two groups of four 8-week-old male rats were administered a mixture of 4:2, 6:2, 8:2, and 10:2 diPAP or monoPAP, respectively, each at about 50 mg/kg, at 4 mL/kg by oral gavage without prior fasting. […] Two control male rats were administered clean vehicle at 4 mL/kg [for details, see Supplemental Material, Table 3 (doi:10.1289/ehp.1002409)].
(§3) Blood was collected from all animals 3 days before dosing to establish background contamination. For the uptake experiment, blood samples were collected at 1, 3, and 6 hr and 1, 2, 4, 7, 10, 14, 18, and 22 days after dosing. For the elimination experiment, blood samples were collected at 2, 4, and 6 hr and 1, 2, 4, 8, 11, 15, and 18 days after dosing. On the final sampling day, the animals were sacrificed by carbon dioxide asphyxiation, and about 10 mL of blood was collected by cardiac puncture into a BD Vacutainer embedded with lithium-heparin.
(§4) The compounds of interest fall into four categories: a) the diPAP and monoPAP parent compounds, b) the saturated and unsaturated fluorotelomer carboxylic acid (FTCA and FTUCA) metabolic intermediates, c) the FTOH-sulfate and FTOH-glucuronide phase II metabolites, and d) the final PFCA biotransformation products [see Supplemental Material, Table 1 (doi:10.1289/ehp.1002409)]. We analyzed these compounds in whole blood, urine, and feces samples. For full analytical details, see Supplemental Material. All PFCAs, FTCAs, FTUCAs, and phase II metabolites were quantified by internal calibration. Because internal standards were not available, monoPAPs and diPAPs were quantified by standard addition. We performed spike and recovery experments to validate the extraction and quantification techniques used (for details, see Supplemental Material).
(§5) Analyte and matrix specific limits of detection (LODs) and limits of quantification (LOQs) are provided in Supplemental Material (doi:10.1289/ehp.1002409). For the purpose of calculating means, values < LOD were assigned a value of zero, and values < LOQ but > LOD were used unaltered but are indicated by asterisks in figures and parentheses in tables. Values are presented using the arithmetic mean ± SE. Full data sets are available in Supplemental Material. […]

[2] = Elimination experiment: diPAP mixture by IV injection, analytes in whole blood; assay type: in vivo, Sprague-Dawley rats; details: male, Sprague-Dawley, rat, in vivo, diPAP IV dose, whole blood
Protocol: as §1
(§6) Two groups of four 8-week-old male rats were administered a mixture of 4:2, 6:2, 8:2, and 10:2 diPAP or monoPAP, respectively, each at about 15 mg/kg, at 2 mL/kg by intravenous (IV) injection into the lateral tail vein. The dosing vehicle was 50:50 propylene glycol:water. Two control male rats were administered clean vehicle at 2 mL/kg [for details see Supplemental Material, Table 3 (doi:10.1289/ehp.1002409)].
as §3, §4, §5

[3] = Uptake experiment: monoPAP mixture by oral gavage, analytes in whole blood; assay type: in vivo, Sprague-Dawley rats; details: male, Sprague-Dawley, rat, in vivo, po, monoPAP gavage dose
Protocol: as §1, §2, §3, §4
(§7) Analyte and matrix specific limits of detection (LODs) and limits of quantification (LOQs) are provided in Supplemental Material (doi:10.1289/ehp.1002409). For the purpose of calculating means, values < LOD were assigned a value of zero, and values < LOQ but > LOD were used unaltered but are indicated by asterisks in figures and parentheses in tables. Values are presented using the arithmetic mean ± SE. Full data sets are available in Supplemental Material.

[4] = Elimination experiment: monoPAP mixture by IV injection, analytes in whole blood; assay type: in vivo, Sprague-Dawley rats; details: male, Sprague-Dawley, rat, in vivo, monoPAP IV dose
Protocol: as §1, §6, §3, §4, §7

[5] = design: method as in Olsen et al. 2007; details: ref Olsen et al. 2007; cited from earlier work

## O=C(O)C(F)(F)C(F)(F)C(F)(F)C(F)(F)C(F)(F)C(F)(F)C(F)(F)F [PFOA, perfluorooctanoic acid]
[1]; 50 mg/kg, mean ± SE, values in parentheses < LOQ but > LOD, read-out: Cmax
  Cmax: 7.2 ± 1.7 ng/g
[1]; 50 mg/kg, read-out: Tmax (converted)
  Tmax: 96 h
[1]; about 50 mg/kg each, mean ± SE, read-out: Half-life (converted)
  Half-life: 264 h
[2]; 15 mg/kg, mean ± SE, values in parentheses < LOQ but > LOD, read-out: Cmax
  Cmax: 9.3 ± 2.4 ng/g
[2]; 15 mg/kg, read-out: Tmax (converted)
  Tmax: 48 h
[2]; about 15 mg/kg each, mean ± SE, read-out: Half-life (converted)
  Half-life: 552 h
[3]; 50 mg/kg, whole blood, read-out: Tmax (converted)
  Tmax: 24 h
[3]; 50 mg/kg, whole blood, values in parentheses < LOQ but > LOD, read-out: Cmax
  Cmax: 28 ± 8 ng/g
[3]; about 50 mg/kg each, PFCA product in whole blood, read-out: Half-life (converted)
  Half-life: 240 h
[4]; 15 mg/kg, whole blood, read-out: Cmax
  Cmax: 8.5 ± 1.4 ng/g
[4]; 15 mg/kg, whole blood, read-out: Tmax (converted)
  Tmax: 96 h
[4]; about 15 mg/kg each, PFCA product in whole blood, read-out: Half-life (converted)
  Half-life: 288 h
[5]
  Human serum half-life (arithmetic): 4.5 years
